In the supplement of paper PMC10307832:

Key:
Test in all cases: relative viability (nuclei count vs DMSO), 5 days (fraction); higher = more cells survive
R406 + Linsitinib = compound: COc1cc(Nc2ncc(F)c(Nc3ccc4c(n3)NC(=O)C(C)(C)O4)n2)cc(OC)c1OC [R406] + C[C@]1(O)C[C@@H](c2nc(-c3ccc4ccc(-c5ccccc5)nc4c3)c3c(N)nccn32)C1 [Linsitinib] (partner 1 µM)
Method in brief: (§1)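 Relative viability equals treated-well nuclei counts divided by vehicle-well nuclei counts. Counts came from 4× images of lung cancer cell lines grown in 1536-well plates for 5 days after pin-tool dosing on the day after seeding. Dosing used one drug alone or a fixed anchor-drug dose plus five library-drug doses (not always all listed) in √10 steps, and values are medians of duplicate plates.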

Daporinad + Crizotinib = compound: O=C(/C=C/c1cccnc1)NCCCCC1CCN(C(=O)c2ccccc2)CC1 [Daporinad] + C[C@@H](Oc1cc(-c2cnn(C3CCNCC3)c2)cnc1N)c1c(Cl)ccc(F)c1Cl [Crizotinib] (partner 1 µM)
Method in brief: as §1

Daporinad + Pemetrexed = compound: O=C(/C=C/c1cccnc1)NCCCCC1CCN(C(=O)c2ccccc2)CC1 [Daporinad] + Nc1nc2[nH]cc(CCc3ccc(C(=O)N[C@@H](CCC(=O)O)C(=O)O)cc3)c2c(=O)[nH]1 [Pemetrexed] (partner 0.2 µM)
Method in brief: as §1

Daporinad + Olaparib = compound: O=C(/C=C/c1cccnc1)NCCCCC1CCN(C(=O)c2ccccc2)CC1 [Daporinad] + O=C(c1cc(Cc2n[nH]c(=O)c3ccccc23)ccc1F)N1CCN(C(=O)C2CC2)CC1 [Olaparib] (partner 8 µM)
Method in brief: as §1

Cell Line	relative viability (R406 + Linsitinib; first compound 0.08 µM)	relative viability (R406 + Linsitinib; first compound 0.253 µM)	relative viability (R406 + Linsitinib; first compound 0.8 µM)	relative viability (R406 + Linsitinib; first compound 2.53 µM)	relative viability (R406 + Linsitinib; first compound 8 µM)	relative viability (Daporinad + Crizotinib; first compound 0.0005 µM)	relative viability (Daporinad + Crizotinib; first compound 0.001581 µM)	relative viability (Daporinad + Crizotinib; first compound 0.005 µM)	relative viability (Daporinad + Crizotinib; first compound 0.01581 µM)	relative viability (Daporinad + Pemetrexed; first compound 0.0005 µM)	relative viability (Daporinad + Pemetrexed; first compound 0.001581 µM)	relative viability (Daporinad + Pemetrexed; first compound 0.005 µM)	relative viability (Daporinad + Pemetrexed; first compound 0.01581 µM)	relative viability (Daporinad + Olaparib; first compound 0.0005 µM)	relative viability (Daporinad + Olaparib; first compound 0.001581 µM)	relative viability (Daporinad + Olaparib; first compound 0.005 µM)	relative viability (Daporinad + Olaparib; first compound 0.01581 µM)
NCI-H2023	0.633	0.714	0.62	0.253	0.55	0.612	0.595	0.631	0.59	0.224	0.231	0.267	0.202	0.51	0.497	0.414	0.277
COR-L 105	0.968	1.13	0.879	0.705	0.736	0.763	0.722	0.723	0.798	1.21	1	1.18	1.02	0.637	0.66	0.61	0.591
SK-LU-1	1.03	1.07	1.07	0.595	0.292	0.942	0.958	1.18	0.892	1.04	0.998	1.09	0.941	0.426	0.548	0.394	0.299
LXF-289	0.922	0.967	0.994	0.989	0.295	0.784	0.899	0.848	0.854	0.837	0.978	0.937	0.889	0.952	1.13	0.929	0.945
PC-3 [JPC-3]	0.981	0.977	1.01	1	0.791	1	1.02	1.11	1.01	1.05	1.14	1.34	1.07	1.18	1.08	1	1.09
NCI-H661	0.436	0.72	0.515	0.39	0.335	0.975	0.998	1.04	0.52	0.959	0.791	0.652	0.51	0.687	0.616	0.665	0.402
NCI-H1666	0.837	0.792	0.872	0.735	0.449	1.25	1.06	1.03	0.97	0.902	0.839	0.862	0.806	0.754	0.644	0.669	0.679
NCI-H2085	0.899	1.08	0.825	0.971	0.707	0.874	0.825	0.868	0.841	0.843		0.994	1.04	0.673		0.629	0.629
NCI-H1734	0.912	0.859	0.949	0.818	0.554	0.713	0.715	0.737	0.464	0.473	0.422	0.425	0.353	0.567	0.443	0.327	0.241
NCI-H2126	0.683	0.783	0.753	0.657	0.625	1.06	1.03	1.09	1.01	0.644	0.68	0.694	0.7	0.945	0.953	0.883	0.863
EMC-BAC-2	0.817	0.87	0.822	0.707	0.53	0.743	0.763	0.527	0.247	0.428	0.482	0.421	0.388	0.387	0.342	0.316	0.235
NCI-H1993	0.762	0.656	0.709	0.675	0.703	0.954	0.941	1.01	1.08	0.54	0.561	0.644	0.567	0.899	1.02	0.948	1.05
NCI-H596	1.09	1.2	1.2	0.878	0.232	1.05	1.02	1.12	0.677	0.432	0.457	0.525	0.36	0.647	0.562	0.542	0.441
NCI-H650	0.909	0.876	1.15	0.473	0.528	0.736	0.749	0.75	0.798	0.903	0.949	1.02	1.16	0.358	0.462	0.346	0.285
NCI-H1792	0.484	0.387	0.744	0.411	0.505	0.916	1.01	0.844	0.976	0.721	1.02	0.76	0.674	0.466	0.493	0.228	0.222
SW 1573	0.926	0.864	0.812	0.664	0.627	0.834	0.831	0.728	0.479	0.798	0.74	0.7	0.461	0.367	0.312	0.323	0.274
NCI-H2009	1.09	1.3	1.19	1.18	1.07	1.02	1.04	1.06	0.827	1.04	1.01	0.872	0.545	0.596	0.58	0.268	0.219
LOU-NH91	0.992	0.882	0.982	0.602	0.521	0.782	0.801	0.862	0.913	0.383	0.359	0.509	0.482	0.874	0.977	0.803	0.837
NCI-H2405	0.916	0.89	1.01	0.731	0.221	0.731	0.92	0.918	0.511	1.17	1.14	1.03	0.413	0.848	0.841	0.639	0.407
